Values of other authors, collected in patent US10391087B2, “Combination of oxymetazoline and ipratropium in topical nasal application for the treatment of a cough” (priority 2015, dated 2019).
Like-named read-outs stand apart in the source and are kept apart here.

What was measured:
[1] = system: ileum guinea pigs nerve tissue; conditions: range 20 to 70% with increasing concentrations of noradrenaline
[2] = system: cardiac response of rabbit vagal electrical stimulation; conditions: rabbit heart
human α1A-adrenoceptors = target: T1, human α1A-adrenoceptors (Homo sapiens, UniProt P35348); conditions: heterologous cells expressing human α1A-adrenoceptors
T1 sequence (P35348 1-466): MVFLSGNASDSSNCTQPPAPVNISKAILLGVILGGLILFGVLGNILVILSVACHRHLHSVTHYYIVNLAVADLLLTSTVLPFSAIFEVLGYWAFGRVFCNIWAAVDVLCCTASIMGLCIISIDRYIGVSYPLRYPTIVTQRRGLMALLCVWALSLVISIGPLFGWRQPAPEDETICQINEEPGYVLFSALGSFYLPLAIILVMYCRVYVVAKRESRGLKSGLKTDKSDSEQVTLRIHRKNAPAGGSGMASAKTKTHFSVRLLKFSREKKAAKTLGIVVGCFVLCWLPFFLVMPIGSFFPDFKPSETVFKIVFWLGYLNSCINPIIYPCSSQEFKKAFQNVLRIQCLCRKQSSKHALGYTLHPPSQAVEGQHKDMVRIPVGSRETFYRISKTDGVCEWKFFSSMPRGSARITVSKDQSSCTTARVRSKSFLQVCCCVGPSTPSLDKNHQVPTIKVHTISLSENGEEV

α-1 and α-2 receptors = conditions: inhibited by α-1 antagonist prazosin, minimal inhibition by α-2 antagonist yohimbine
[3] = system: nasal secretion (rhinorrhea)

For `NC[C@H](O)c1ccc(O)c(O)c1` [Noradrenaline, noradrenaline], the “reduction of acetilcoline discharge, average” value [1] is listed as 56.8%.

In the case of `Cc1cc(C(C)(C)C)c(O)c(C)c1CC1=NCCN1` [oximetazoline, oxymetazoline], the “cardiac response of vagal electrical stimulation” value [2] is listed as “significantly inhibited”, the blood pressure (large doses of 0.3%) is listed as “significant increase in blood pressure” and the blood pressure (standard doses of 0.01 to 0.1%) is listed as “no”. The “Ca2+ responses” value (human α1A-adrenoceptors) was “induce responses Ca^2+” and the contraction (α-1 and α-2 receptors) was “dose dependent contraction”.

For `Cc1cc(C(C)(C)C)cc(C)c1CC1=NCCN1` [xilometazoline], the rhinorrhea ([3]; 5 to 10 days after start of the infectious process, p<0.05) is given as “decreased rhinorrhea”, the “nasal secretion compared with placebo” value ([3]; Eccles 2008, xilometazoline alone, p<0.05) is given as “decreased nasal secretion” and the rhinorrhea ([3]; another study, measured on day 1 of administration) is given as “increases”.

For `CC(C)[N+]1(C)[C@@H]2CC[C@H]1C[C@@H](OC(=O)C(CO)c1ccccc1)C2` (stereo partly shown) [ipratropium], the nasal discharge ([3]; four studies, ipratropium alone, intranasally) is given as “lower nasal discharge”.
